According to patent US20230151371A1, “POLYPEPTIDES HAVING EPOXY GROUP-REMOVING CATALYTIC ACTIVITY, NUCLEIC ACIDS ENCODING THE POLYPEPTIDES AND USE THEREOF” (priority 2020, published 2023):
Like-named read-outs stand apart in the source and are kept apart here.

Key:
[1] = test system: pancreatic cancer cell line (PATU8988)
[2] = test system: human embryonic kidney cell 293-derived line (293T)
[3] = test system: normal human esophageal epithelial cells (HEECs)

Measured: cell viability (CCK-8, OD450)

3-acetyl-deoxynivalenol [3-ADON]
decreased sharply: [1]; PATU8988, 48 h treatment | [2]; 293T, 48 h treatment | [3]; HEEC, 48 h treatment

15-acetyl-deoxynivalenol [15-ADON]
decreased sharply: [1]; PATU8988, 48 h treatment | [2]; 293T, 48 h treatment | [3]; HEEC, 48 h treatment

HT-2 toxin
decreased sharply: [1] | [2] | [3]

deoxynivalenol [DON]
decreased sharply: [1]; PATU8988, 48 h treatment | [2]; 293T, 48 h treatment | [3]; HEEC, 48 h treatment

fusarenon-X [FUS-X]
decreased sharply: [1] | [2] | [3]; HEEC, 48 h treatment
